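48-hour exposure; five concentrations; linearly interpolated endpoints. GI50 is the concentration that inhibits growth by half. TGI: total growth inhibition.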
Tested on: 786-0 renal
Test: inhibition of tumour cell growth, NCI panel, 48 h

Row | Structure (SMILES) | GI50 [µM] | TGI [µM]
1 | O=C(/C(=C/c1cccc([N+](=O)[O-])c1)c1ccccc1)c1ccccc1 | 4.8 | 18.3
2 | CCCCCN(CCCCC)CC(O)c1ccc(Cl)c2ccccc12 (stereo not drawn) | 11.7 | 24.8
3 | Cc1ccc(NC(=O)c2sc3nc(C)c(C(O)c4ccccc4)cc3c2N)cc1 (stereo not drawn) | 1.02 | 18.8

Tested on: A498 renal
Test: inhibition of tumour cell growth, NCI panel, 48 h

Row | Structure (SMILES) | GI50 [µM] | TGI [µM]
4 | O=C(/C(=C/c1cccc([N+](=O)[O-])c1)c1ccccc1)c1ccccc1 | 2.69 | 12.9
5 | CCCCCN(CCCCC)CC(O)c1ccc(Cl)c2ccccc12 (stereo not drawn) | 10.3 | 29.3
6 | CC(=O)Nc1ccc2[nH]c(C(=O)N3CC(CCl)c4c3cc(N)c3ccccc43)cc2c1 (stereo not drawn) | – | 0.0554
7 | Cc1ccc(NC(=O)c2sc3nc(C)c(C(O)c4ccccc4)cc3c2N)cc1 (stereo not drawn) | 0.233 | 1.04

Tested on: A549 NSCLC
Test: inhibition of tumour cell growth, NCI panel, 48 h

Row | Structure (SMILES) | GI50 [µM] | TGI [µM]
8 | O=C(/C(=C/c1cccc([N+](=O)[O-])c1)c1ccccc1)c1ccccc1 | 4.31 | 30.1
9 | CCCCCN(CCCCC)CC(O)c1ccc(Cl)c2ccccc12 (stereo not drawn) | 14.2 | 34
10 | Cc1ccc(NC(=O)c2sc3nc(C)c(C(O)c4ccccc4)cc3c2N)cc1 (stereo not drawn) | 0.64 | 32.7

Tested on: ACHN renal
Test: inhibition of tumour cell growth, NCI panel, 48 h

Row | Structure (SMILES) | GI50 [µM] | TGI [µM]
11 | O=C(/C(=C/c1cccc([N+](=O)[O-])c1)c1ccccc1)c1ccccc1 | 2.3 | 5.41
12 | CCCCCN(CCCCC)CC(O)c1ccc(Cl)c2ccccc12 (stereo not drawn) | 10.3 | 22.5
13 | Cc1ccc(NC(=O)c2sc3nc(C)c(C(O)c4ccccc4)cc3c2N)cc1 (stereo not drawn) | 0.658 | 20.2

Tested on: BT-549 breast
Test: inhibition of tumour cell growth, NCI panel, 48 h

Row | Structure (SMILES) | GI50 [µM] | TGI [µM]
14 | O=C(/C(=C/c1cccc([N+](=O)[O-])c1)c1ccccc1)c1ccccc1 | 3.38 | 13.1
15 | CCCCCN(CCCCC)CC(O)c1ccc(Cl)c2ccccc12 (stereo not drawn) | 16.3 | 33.7
16 | CC(=O)Nc1ccc2[nH]c(C(=O)N3CC(CCl)c4c3cc(N)c3ccccc43)cc2c1 (stereo not drawn) | – | 0.335
17 | Cc1ccc(NC(=O)c2sc3nc(C)c(C(O)c4ccccc4)cc3c2N)cc1 (stereo not drawn) | 1.15 | 33.7

Tested on: CAKI-1 renal
Test: inhibition of tumour cell growth, NCI panel, 48 h

Row | Structure (SMILES) | GI50 [µM] | TGI [µM]
18 | O=C(/C(=C/c1cccc([N+](=O)[O-])c1)c1ccccc1)c1ccccc1 | 3.18 | 10.2
19 | CCCCCN(CCCCC)CC(O)c1ccc(Cl)c2ccccc12 (stereo not drawn) | 3.35 | 18.6
20 | CC(=O)Nc1ccc2[nH]c(C(=O)N3CC(CCl)c4c3cc(N)c3ccccc43)cc2c1 (stereo not drawn) | – | < 0.01
21 | Cc1ccc(NC(=O)c2sc3nc(C)c(C(O)c4ccccc4)cc3c2N)cc1 (stereo not drawn) | 0.45 | 25.9

Tested on: CCRF-CEM leukemia
Test: inhibition of tumour cell growth, NCI panel, 48 h

Row | Structure (SMILES) | GI50 [µM] | TGI [µM]
22 | O=C(/C(=C/c1cccc([N+](=O)[O-])c1)c1ccccc1)c1ccccc1 | 2.17 | 27.8
23 | CCCCCN(CCCCC)CC(O)c1ccc(Cl)c2ccccc12 (stereo not drawn) | 10.5 | 33.1
24 | Cc1ccc(NC(=O)c2sc3nc(C)c(C(O)c4ccccc4)cc3c2N)cc1 (stereo not drawn) | 0.375 | > 49.7

Tested on: COLO 205 colon
Test: inhibition of tumour cell growth, NCI panel, 48 h

Row | Structure (SMILES) | GI50 [µM] | TGI [µM]
25 | O=C(/C(=C/c1cccc([N+](=O)[O-])c1)c1ccccc1)c1ccccc1 | 3.82 | 13.3
26 | CCCCCN(CCCCC)CC(O)c1ccc(Cl)c2ccccc12 (stereo not drawn) | 3.6 | 16.5
27 | Cc1ccc(NC(=O)c2sc3nc(C)c(C(O)c4ccccc4)cc3c2N)cc1 (stereo not drawn) | 0.573 | > 21.8

Tested on: DU-145 prostate
Test: inhibition of tumour cell growth, NCI panel, 48 h

Row | Structure (SMILES) | GI50 [µM] | TGI [µM]
28 | O=C(/C(=C/c1cccc([N+](=O)[O-])c1)c1ccccc1)c1ccccc1 | 4.22 | 14.7
29 | CCCCCN(CCCCC)CC(O)c1ccc(Cl)c2ccccc12 (stereo not drawn) | 12.1 | 30.6
30 | Cc1ccc(NC(=O)c2sc3nc(C)c(C(O)c4ccccc4)cc3c2N)cc1 (stereo not drawn) | 0.391 | 16.8
31 | C[C@H](C(=O)N[C@@H](Cc1ccc(-c2ccccc2)cc1)C(=O)NC1CC(C)(C)NC(C)(C)C1)c1ccc(-c2ccccc2)c(F)c1 | 0.377 | 1.54

Tested on: EKVX NSCLC
Test: inhibition of tumour cell growth, NCI panel, 48 h

Row | Structure (SMILES) | GI50 [µM] | TGI [µM]
32 | CCCCCN(CCCCC)CC(O)c1ccc(Cl)c2ccccc12 (stereo not drawn) | 10.8 | 30.4
33 | CC(=O)Nc1ccc2[nH]c(C(=O)N3CC(CCl)c4c3cc(N)c3ccccc43)cc2c1 (stereo not drawn) | – | 0.0851
34 | Cc1ccc(NC(=O)c2sc3nc(C)c(C(O)c4ccccc4)cc3c2N)cc1 (stereo not drawn) | 0.733 | > 100

Tested on: HCC-2998 colon
Test: inhibition of tumour cell growth, NCI panel, 48 h

Row | Structure (SMILES) | GI50 [µM] | TGI [µM]
35 | O=C(/C(=C/c1cccc([N+](=O)[O-])c1)c1ccccc1)c1ccccc1 | 2.54 | 6.27
36 | CCCCCN(CCCCC)CC(O)c1ccc(Cl)c2ccccc12 (stereo not drawn) | 3.34 | 9.72
37 | CC(=O)Nc1ccc2[nH]c(C(=O)N3CC(CCl)c4c3cc(N)c3ccccc43)cc2c1 (stereo not drawn) | – | < 0.01
38 | Cc1ccc(NC(=O)c2sc3nc(C)c(C(O)c4ccccc4)cc3c2N)cc1 (stereo not drawn) | 0.818 | 5.73
39 | C[C@H](C(=O)N[C@@H](Cc1ccc(-c2ccccc2)cc1)C(=O)NC1CC(C)(C)NC(C)(C)C1)c1ccc(-c2ccccc2)c(F)c1 | 0.813 | > 100

Tested on: HCT-116 colon
Test: inhibition of tumour cell growth, NCI panel, 48 h

Row | Structure (SMILES) | GI50 [µM] | TGI [µM]
40 | O=C(/C(=C/c1cccc([N+](=O)[O-])c1)c1ccccc1)c1ccccc1 | 2.01 | 4.25
41 | CCCCCN(CCCCC)CC(O)c1ccc(Cl)c2ccccc12 (stereo not drawn) | 2.13 | 13.1
42 | CC(=O)Nc1ccc2[nH]c(C(=O)N3CC(CCl)c4c3cc(N)c3ccccc43)cc2c1 (stereo not drawn) | – | < 0.01
43 | Cc1ccc(NC(=O)c2sc3nc(C)c(C(O)c4ccccc4)cc3c2N)cc1 (stereo not drawn) | 0.381 | 12.2

Tested on: HCT-15 colon
Test: inhibition of tumour cell growth, NCI panel, 48 h

Row | Structure (SMILES) | GI50 [µM] | TGI [µM]
44 | O=C(/C(=C/c1cccc([N+](=O)[O-])c1)c1ccccc1)c1ccccc1 | 2.75 | 16.5
45 | CCCCCN(CCCCC)CC(O)c1ccc(Cl)c2ccccc12 (stereo not drawn) | 6.98 | 22.1
46 | CC(=O)Nc1ccc2[nH]c(C(=O)N3CC(CCl)c4c3cc(N)c3ccccc43)cc2c1 (stereo not drawn) | – | 2.16
47 | Cc1ccc(NC(=O)c2sc3nc(C)c(C(O)c4ccccc4)cc3c2N)cc1 (stereo not drawn) | 0.397 | > 73

Tested on: HL-60(TB) leukemia
Test: inhibition of tumour cell growth, NCI panel, 48 h

Row | Structure (SMILES) | GI50 [µM] | TGI [µM]
48 | CCCCCN(CCCCC)CC(O)c1ccc(Cl)c2ccccc12 (stereo not drawn) | 5.5 | 20.9
49 | Cc1ccc(NC(=O)c2sc3nc(C)c(C(O)c4ccccc4)cc3c2N)cc1 (stereo not drawn) | 0.293 | 0.909

Tested on: HOP-62 NSCLC
Test: inhibition of tumour cell growth, NCI panel, 48 h

Row | Structure (SMILES) | GI50 [µM] | TGI [µM]
50 | O=C(/C(=C/c1cccc([N+](=O)[O-])c1)c1ccccc1)c1ccccc1 | 2.87 | 7.56

— PubChem BioAssay (NCI)
